Experimental data published in patent publication US20180214400A1, “THE USE OF KAURANES COMPOUNDS IN THE MANUFACTURE OF MEDICAMENT FOR TREATMENT OF CADIAC HYPERTROPY AND PULMONARY HYPERTENSION” (KEY-PHARMA BIOMEDICAL INC., priority 2015, published 2018).

How the values were obtained:
TAC rats = assay: Left ventricular pressure-volume relationship in TAC rats; assay type: in vivo; conditions: 3 or 9 weeks
Experimental: The left ventricular pressure and volume were measured simultaneously. Tow parameters can be derived by studying of the relationship of pressure-volume during changes of either preload or afterload. ESPVR, the slope of end-systolic pressure-volume relationships which represent end-systolic elastics; EDPVR, the slope of end-diastolic pressure-volume relationship which, represents cardiac stiffness. In hypertrophy hearts after 3 or 9 weeks TAC, the cardiac pump dysfunction was manifested by a significant decreased ESPVR and increased in EDPVR. […] Therefore, compound A are useful to preserve a normal elasticity during contraction and reduce diastolic stiffness of hearts with high pressure load as in TAC rats.
Heart hemodynamic Analysis was conducted by pressure-volume (PV) catheter. Rats were anesthetized and placed on a warming pad (37° C.). Underwent tracheostomy, rats were then ventilated by using a positive pressure with a tidal volume of 4-6 ml/200 g at 70 breaths/min using room air. […] After stabilization of the signal for 10-15 min, baseline PV loops were recorded at a steady state. […] After data were recorded under steady-state conditions and during preload reduction, parallel conductance values were obtained by the injection of 40 μl hypertonic saline (30%) into the right jugular vein. […] Data were recorded on separate channels of the PowerLab system. […]

microRNA21 = microRNA21 and fibrosis at penumbra region of ischemic heart; assay type: in vivo
From the text: This effect of compound A has never been reported in prior art.

[1] = tested on: ROS (reactive oxygen species); assay: ROS in cytosol and mitochondria of cardiomyocytes; assay type: cell-based; conditions: cardiomyocytes hypertrophy
From the text: In this invention, we disclosed that compound A could suppress cardiomyocytes hypertrophy by reducing ROS (reactive oxygen species) in either cytosol and mitochondria in addition to the inhibition of PED, while classic PED inhibitor such as sildenafil has no such effects been reported in prior arts. This explains the superiority of compound A over sildenafil in suppressing hypertrophy and other diseases. This invention disclosed a new use of compound A as PED inhibitor with novel mechanism which is different than what been disclosed in prior art.

[2] = tested on: cerebral I/R injured rats; assay: Late phase cerebral I/R injury (7 days) in rats; assay type: in vivo; conditions: 7 days after I/R
Experimental: Reactive astrogliosis is a common pathological process in late phase of cerebral I/R injury, which contributes to further neuronal damages. It is also seen in neuronal degenerative disease such as Alzheimer's disease in the present invention, compound A given consecutively for 7 days in cerebral I/R injured rats. […] The therapeutic effects of either single or consecutive 7 treatments with compound A were Analyzed and compared at 7 days after I/R injury.

[3] = tested on: acute ischemia-reperfusion heart injuries; conditions: cited from earlier work
[4] = tested on: hypoxia-induced PHT in rats; conditions: chronic hypoxia; cited from earlier work

| Structure (SMILES) | deteriorations in ESPVR and EDPVR (TAC rats) | fibrosis at the same region (microRNA21) | microRNA21 (microRNA21; penumbra region of the ischemic heart) | ROS in cytosol and mitochondria [1] | I/R injury, consecutive 7 treatments comparing to single treatment [2] | accumulation of activated astrocytes ([2]; consecutive treatments) | infarct volume ([2]; given consecutively for 7 days) | neurological behavior and cellular morphology ([2]; given consecutively for 7 days) | neuronal survival ([2]; given consecutively for 7 days) | cardioprotective effect and arrhythmia [3] | rise in pulmonary artery pressure and vascular remodeling [4] |
| --- | --- | --- | --- | --- | --- | --- | --- | --- | --- | --- | --- |
| C[C@@]12CC[C@@H]3[C@@](CC[C@H]4[C@@]3(C)CCC[C@@]4(C)C(=O)O)(CC1=O)C2 [Compound A, (4α,8β,13β)-13-methyl-16-oxo-17-norkauran-18-oic acid] | prevented the deteriorations | significant amelioration | significant reduced | reducing | significantly improved | significantly inhibited | reduction | improvement | enhancement | cardioprotective effect |  |
| CCCc1nn(C)c2c(=O)[nH]c(-c3cc(S(=O)(=O)N4CCN(C)CC4)ccc3OCC)nc12 [sildenafil, reference compound] |  |  |  |  |  |  |  |  |  |  | attenuated |
